Data as given in paper PMC11736144, “A sleepy cannabis constituent: cannabinol and its active metabolite influence sleep architecture in rats” (Neuropsychopharmacology, 2024).
Where two headings read alike, the source gives them in different places.

Columns and labels:
human CB1 receptors [1] = biological target: T1, human CB1 receptors (Homo sapiens, UniProt P21554); set-up: expressed in transfected cells; method as in PMID 7565624, PMID 9690851; conditions: some studies; cited from earlier work
T1 sequence (P21554 whole entry): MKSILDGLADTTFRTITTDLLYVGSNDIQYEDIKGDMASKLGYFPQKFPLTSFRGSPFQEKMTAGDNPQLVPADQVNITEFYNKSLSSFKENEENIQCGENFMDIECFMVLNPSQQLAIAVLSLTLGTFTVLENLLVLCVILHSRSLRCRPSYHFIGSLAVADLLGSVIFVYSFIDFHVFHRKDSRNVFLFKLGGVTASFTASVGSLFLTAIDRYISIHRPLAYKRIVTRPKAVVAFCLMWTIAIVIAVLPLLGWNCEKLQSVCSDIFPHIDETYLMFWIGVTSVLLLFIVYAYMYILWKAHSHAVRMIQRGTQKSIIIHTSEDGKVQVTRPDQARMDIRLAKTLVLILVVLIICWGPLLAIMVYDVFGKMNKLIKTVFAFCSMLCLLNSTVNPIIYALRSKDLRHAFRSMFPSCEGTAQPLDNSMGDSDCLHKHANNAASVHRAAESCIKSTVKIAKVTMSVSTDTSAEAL

rats [2] = system: rats; set-up: method as in PMID 168604; conditions: cited from earlier work
human CB1 receptors [3] = biological target: T1, human CB1 receptors; experiment: cell-based; format: cell-based; set-up: expressed in transfected cells; host or cells: mouse AtT20 FlpIn cells
human CB2 receptors = biological target: T2, human CB2 receptors (Homo sapiens, UniProt P34972); experiment: Membrane potential (GIRK) assay in AtT20 cells, human CB2; format: cell-based; conditions: at 10 µM; normalized to 1 µM CP 55,940
T2 construct: expressed in transfected cells; host or cells: mouse AtT20 FlpIn cells
T2 sequence (P34972 whole entry): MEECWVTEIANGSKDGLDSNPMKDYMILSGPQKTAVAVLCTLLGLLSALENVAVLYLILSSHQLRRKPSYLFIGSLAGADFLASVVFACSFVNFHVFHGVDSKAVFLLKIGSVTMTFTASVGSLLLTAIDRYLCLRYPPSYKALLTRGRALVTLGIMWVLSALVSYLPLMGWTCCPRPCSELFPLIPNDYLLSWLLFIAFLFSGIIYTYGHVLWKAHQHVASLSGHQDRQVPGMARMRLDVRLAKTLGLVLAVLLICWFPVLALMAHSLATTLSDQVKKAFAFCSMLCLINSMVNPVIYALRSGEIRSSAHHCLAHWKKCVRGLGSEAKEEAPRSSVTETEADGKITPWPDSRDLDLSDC

[4] = rats, oral vs IP of the current study; cited from earlier work
male Long-Evans rats [5] = experiment: Repeated CBN dosing (15 days) polysomnography in rats; format: in vivo, rat; conditions: CBN 10 mg/kg IP daily for 15 days
Description: In the repeated dosing experiment, eight rats were randomly assigned to vehicle condition and eight to the CBN 10 mg/kg condition. Rats were administered the same treatment at ZT13 each day for 15 days, however, telemetry recordings were taken on days 1, 8, and 15 of respective treatments, and the response was compared between subjects.

[6] = cited from earlier work
[7] = Pharmacokinetic analysis of CBN and metabolites in rat plasma and brain (LC-MS/MS); format: in vivo
Description: Rats received 10 mg/kg CBN IP at approximately ZT13. Rats were then anesthetized with isoflurane at selected ZT points (13, 13.5, 14, 15, 17, 19, and 21) and blood was collected by terminal cardiac puncture. Brains were harvested, snap frozen on dry ice and plasma was isolated via centrifugation at 9000 × g for 10 min at 4 °C. All tissues were stored at −80 °C until analysis. CBN and metabolite concentrations in plasma and brain samples were assayed by liquid chromatography-tandem mass spectrometry (LC–MS/MS) using a using a Shimadzu Nexera LC-30AD UHPLC system coupled to a Shimadzu SPD-20AV photodiode array detector and a Shimadzu LC–MS-8040 triple-quadrupole mass spectrometer, equipped with an electrospray ionization (ESI) source (Shimadzu Corp.; Kyoto, Japan) as described previously.
LC-MS/MS. Plasma samples (50 µL) were spiked with internal standard (12.5 µg/mL d3-THC, 5 µL) and protein precipitation was achieved by vortex-mixing with a 3x volume of ice-cold acetonitrile. The organic layer was isolated by centrifugation (6000 g for 10 min, 4 °C) and evaporated to dryness using N2 gas. Samples were reconstituted in acetonitrile (90 µL) and 0.1% ammonium formate in water (300 µL) for supported-liquid extraction (SLE) using dichloromethane and methyl tert-butyl ether Biotage Isolute SLE+ columns (Uppsala, Sweden) as previously described. Brain samples were prepared as described for plasma samples with minor modifications. Briefly, each half brain was homogenised in methanol: water (2:1, 10x, w/v) and spiked with d3-THC as an internal standard. Homogenates were centrifuged (20,000 g for 30 min, 4 °C). Supernatants were then extracted and prepared as described above.
Quantification of CBN, 11-OH-CBN and 11-COOH-CBN in plasma and brain samples was performed by comparing experimental samples to eight-point standard curves prepared with known amounts of cannabinoid. Plasma and brain concentrations at each time point were averaged and pharmacokinetic parameters were calculated by noncompartmental analysis. Elimination rate constants were determined by linear regression of the terminal component of the concentration-time curve using GraphPad Prism 8.2 (La Jolla, USA). The log-linear trapezoidal method was used to calculate the area under concentration-time curve using equations described previously.

[8] = system: non-clinical sample of poor sleepers; set-up: method as in PMID 37796540; conditions: 20 mg CBN alone, self-reported measures, vs placebo; cited from earlier work
male Long-Evans rats [9] = experiment: Acute polysomnography (wireless EEG/EMG telemetry) in rats
rats [10] = conditions: cited from earlier work
[11] = days 1, 8, 15, not subject to tolerance
[12] = acute IP at ZT13 vs vehicle, CBN 10, 30, 100 mg/kg, 11-OH-CBN 1, 3, 10 mg/kg
[13] = acute IP at ZT13 vs vehicle, CBN 10, 30, 100 mg/kg, zolpidem 10 mg/kg, 11-OH-CBN 1, 3, 10 mg/kg
[14] = rats, 10 and 30 mg/kg CBN IP, CBN 99.2% pure with 0.8% Δ8-THC, ref Järbe et al (1987)

Which “activity at human CB1 receptors” value (human CB1 receptors [1]) does the source give for `CCCCCc1cc(O)c2c(c1)OC(C)(C)c1ccc(C)cc1-2` [CBN, cannabinol] here?
Its value is “inactive”.

What about the pentobarbital-induced sleep time (rats [2]) of the same molecule?
Its pentobarbital-induced sleep time is “prolonged”.

And the EC50 (human CB1 receptors [3])?
The EC50 was 3.98 µM.

What about the “activity at CB1 receptors (in words)” value (human CB1 receptors [3]) of the same molecule?
Its value is “low activity”.

What about the Emax (human CB1 receptors [3]; AtT20, read-out: maximal response (Emax)) of the same molecule?
Its Emax is 29 ± 3%.

What about the “activity at CB2” value (human CB2 receptors) of the same molecule?
The value was less than 20%.

What about the “plasma exposures (AUC), oral lower than intraperitoneal at the same dose” value [4] of the same molecule?
Its value is roughly 5 fold.

And the “% NREM” value (male Long-Evans rats [5]; days 1, 8, 15)?
Its value is “increased % NREM initially on days 1 and 8, however this effect was diminished by day 15”.

What about the “% REM” value (male Long-Evans rats [5]; days 1, 8, 15) of the same molecule?
The value was “affected”.

What about the “% quiet wake” value (male Long-Evans rats [5]; days 1, 8, 15) of the same molecule?
The value was “affected”.

And the REM bout duration (male Long-Evans rats [5]; days 1, 8, 15)?
Its REM bout duration is “affected”.

What about the REM bout number (male Long-Evans rats [5]; days 1, 8, 15) of the same molecule?
Its REM bout number is “affected”.

And the total wake time (male Long-Evans rats [5]; days 1, 8, 15)?
The total wake time was “decreased”.

What about the “NREM sleep onset latency” value (male Long-Evans rats [5]; days 1, 8, 15, main effect) of the same molecule?
The value was “increased”.

What about the “REM sleep onset latency” value (male Long-Evans rats [5]; days 1, 8, 15, main effect) of the same molecule?
The value was “increased”.

And the NREM bout duration (male Long-Evans rats [5]; [11])?
The NREM bout duration was “increased”.

What about the NREM bout number (male Long-Evans rats [5]; [11]) of the same molecule?
The NREM bout number was “decreased”.

And the “% active wake” value (male Long-Evans rats [5]; days 1, 8, 15, subject to tolerance)?
Its value is “decreased”.

And the “total sleep time over days” value (male Long-Evans rats [5]; recordings days 1, 8, 15, between-subjects vs vehicle, n = 8)?
Its value is “increased”.

What about the “highest plasma CBN concentration (Cmax) following cannabis smoking” value [6] of the same molecule?
The value was 11.6 ng/mL.

And the Tmax ([7]; ip, rat brain after CBN 10 mg/kg, read-out: brain Tmax)?
Its Tmax is 2 h.

And the Tmax ([7]; ip, rat plasma after CBN 10 mg/kg, read-out: plasma Tmax (converted))?
The Tmax was 0.5 h.

And the half-life ([7]; ip, rat, after CBN 10 mg/kg, similar in plasma and brain, read-out: half-life in plasma and brain (converted))?
Its half-life is roughly 2 h.

What about the “Brain AUC∞” value ([7]; rat brain after CBN 10 mg/kg IP, analyte as labelled) of the same molecule?
The value was 1623 pg hour/mg brain.

And the “Brain Cmax” value ([7]; rat brain after CBN 10 mg/kg IP, analyte as labelled, n = 4)?
The value was 373 ± 26 pg/mg brain.

And the half-life ([7]; rat brain after CBN 10 mg/kg IP, analyte as labelled, read-out: Brain t½ (converted))?
The half-life was 2.2 h.

What about the “Brain Cmax” value ([7]; rat brain following systemic administration of CBN) of the same molecule?
Its value is 1.2 µM.

And the “Plasma AUC∞” value ([7]; rat plasma after CBN 10 mg/kg IP, analyte as labelled)?
The value was 775 ng·h/mL.

And the Cmax ([7]; rat plasma after CBN 10 mg/kg IP, analyte as labelled, n = 4)?
The Cmax was 374 ± 34 ng/mL.

What about the half-life ([7]; rat plasma after CBN 10 mg/kg IP, analyte as labelled, read-out: Plasma t½ (converted)) of the same molecule?
The half-life was 1.93 h.

What about the Brain/plasma ratio ([7]; rat, after CBN 10 mg/kg IP, analyte as labelled) of the same molecule?
Its Brain/plasma ratio is roughly 2.

And the Kp ([7]; rat, brain and plasma, ip, 10 mg/kg, rat, after CBN 10 mg/kg IP, analyte as labelled, read-out: Brain/plasma ratio)?
Its Kp is 2.09.

And the Cmax ([7]; rat, plasma, intraperitoneal, rats, 10 mg/kg CBN dose)?
The Cmax was 374 ng/mL.

What about the “number of awakenings and overall sleep disturbance” value [8] of the same molecule?
Its value is “significantly reduced”.

What about the sleep onset latency [8] of the same molecule?
Its sleep onset latency is “did not influence”.

And the “% NREM sleep compared to vehicle” value (male Long-Evans rats [9]; CBN 10 mg/kg and 100 mg/kg, various time points from ZT16–20)?
Its value is “significantly increased”.

And the “cumulative total sleep time” value (male Long-Evans rats [9]; CBN 10 mg/kg dose only, from ZT17)?
The value was “significantly increased”.

What about the “NREM delta power at specific time points” value (male Long-Evans rats [9]; CBN 30 mg/kg and 100 mg/kg at ZT17 and 18, zolpidem 10 mg/kg at ZT13 and 14) of the same molecule?
The value was “increase”.

And the NREM delta power (male Long-Evans rats [9]; EEG power spectra, overall effect, acute IP, CBN 10, 30, 100 mg/kg, zolpidem 10 mg/kg, 11-OH-CBN 1, 3, 10 mg/kg)?
Its NREM delta power is “Neither CBN nor zolpidem had robust effects”.

What about the REM theta power (male Long-Evans rats [9]; EEG power spectra, acute IP, CBN 10, 30, 100 mg/kg, zolpidem 10 mg/kg, 11-OH-CBN 1, 3, 10 mg/kg) of the same molecule?
The REM theta power was “increased”.

What about the “delayed onset of action on % NREM sleep, time post-dosing” value (male Long-Evans rats [9]; acute IP at ZT13) of the same molecule?
The value was 3 to 4 h.

What about the total sleep time (male Long-Evans rats [9]; acute IP at ZT13 (dark phase) vs vehicle, CBN 10, 30, 100 mg/kg, zolpidem 10 mg/kg, 11-OH-CBN 1, 3, 10 mg/kg, n = 8) of the same molecule?
The total sleep time was “increased”.

And the “cumulative NREM time” value (male Long-Evans rats [9]; [12])?
The value was “biphasic effect”.

What about the “cumulative REM time” value (male Long-Evans rats [9]; [12]) of the same molecule?
Its value is “similarly influenced”.

What about the “% NREM sleep” value (male Long-Evans rats [9]; [13]) of the same molecule?
The value was “increased”.

And the “% REM sleep” value (male Long-Evans rats [9]; [13])?
Its value is “initially suppressed % REM, before it increased % REM at ZT17-18”.

What about the “% active wake” value (male Long-Evans rats [9]; [13]) of the same molecule?
The value was “decreased”.

What about the “% quiet wake” value (male Long-Evans rats [9]; [13]) of the same molecule?
The value was “affected”.

And the “NREM sleep onset latency” value (male Long-Evans rats [9]; [13])?
The value was “did not affect”.

What about the REM bout duration (male Long-Evans rats [9]; [13]) of the same molecule?
The REM bout duration was “initially decreased REM bout duration and then increased duration of REM bouts”.

And the REM bout number (male Long-Evans rats [9]; [13])?
The REM bout number was “biphasically influenced”.

What about the “REM sleep onset latency” value (male Long-Evans rats [9]; [13]) of the same molecule?
The value was “increased”.

And the “cumulative total sleep time” value (male Long-Evans rats [9]; [13])?
Its value is “biphasic effects”.

What about the “mean duration of NREM bouts per hour” value (male Long-Evans rats [9]; [13]) of the same molecule?
The value was “increased”.

And the “number of NREM bouts per hour” value (male Long-Evans rats [9]; [13])?
The value was “decreased”.

And the total wake time (male Long-Evans rats [9]; [13])?
Its total wake time is “decreased”.

What about the body temperature (male Long-Evans rats [9]; subcutaneous, telemetry, acute IP, CBN 10, 30, 100 mg/kg, zolpidem 10 mg/kg, 11-OH-CBN 1, 3, 10 mg/kg) of the same molecule?
The body temperature was “did not robustly effect”.

What about the locomotor activity counts (male Long-Evans rats [9]; telemetry, acute IP, CBN 10, 30, 100 mg/kg, zolpidem 10 mg/kg, 11-OH-CBN 1, 3, 10 mg/kg) of the same molecule?
The locomotor activity counts was “decreased”.

What about the “body temperature or locomotor activity” value (rats [10]; CBN up to 80 mg/kg IP, ref Fernandes et al (1974)) of the same molecule?
Its value is “did not influence”.

And the body temperature (rats [10]; [14])?
The body temperature was “reduced”.

And the locomotor activity (rats [10]; [14])?
The locomotor activity was “suppressed”.
